Data reported in patent US7384931B2, “Constrained compounds as CGRP-receptor antagonists” (Bristol-Myers Squibb Company, priority 2004, dated 2008).

How the values were obtained:
[1] = biological target: T1, CGRP receptor (Homo sapiens, UniProt O60894+Q16602); experiment: Cyclic AMP functional antagonism assay in SK-N-MC cells; type: cell-based; design: SK—N-MC cells that endogenously express the human CGRP receptor; endogenous in cells; host or cells: SK-N-MC cells; conditions: inhibition of 0.3 nM CGRP-induced cyclic AMP formation, 15 min pre-incubation, read-out: cAMP Function IC50
Description: Cyclic AMP Functional Antagonism Assay. Antagonism of the compounds of invention was determined by measuring the formation of cyclic AMP (adenosine 3′5′-cyclic monophosphate) in SK—N-MC cells that endogenously express the human CGRP receptor. CGRP receptor complex is coupled with Gs protein and CGRP binding to this complex leads to the cyclic AMP production via Gs—dependent activation of an adenylate cyclase (Juaneda C et al., TiPS, 2000; 21:432-438; incorporated by reference herein). Consequently, CGRP receptor antagonists inhibit CGRP—induced cyclic AMP formation in SK—N-MC cells (Doods H et al., Br J Pharmacol, 2000; 129(3):420-423); incorporated by reference herein). For cyclic AMP measurements SK—N-MC cells were incubated with 0.3 nM CGRP alone or in the presence of various concentrations of the compounds of invention for 30 min at room temperature. Compounds of invention were pre-incubated with SK—N-MC cells for 15 min before the addition of CGRP to allow receptor occupancy (Edvinsson et al., Eur J Pharmacol, 2001, 415:39-44; incorporated by reference herein). Cyclic AMP was extracted using the lysis reagent and its concentration was determined by radioimmunoassay using RPA559 cAMP SPA Direct Screening Assay Kit (Amersham Pharmacia Biotech). IC50 values were calculated using Excel fit.

[2] = biological target: T1, CGRP receptor; experiment: CGRP radioligand binding assay ([125I]-CGRP displacement, SK-N-MC homogenate); design: endogenous in cells; host or cells: SK-N-MC cells (homogenate/membrane pellet); conditions: displacement of [125I]-CGRP, room temperature 2 h
Method in brief: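 SK-N-MC cell homogenate (5 μg/well) was incubated 2 h at room temperature with [125I]-CGRP (diluted to 60 pM before addition) in 50 mM Tris-Cl pH 7.5, 5 mM MgCl2, 0.005% Triton X-100 plus protease inhibitors. Bound radioactivity was collected by filtration; 1 μM beta-CGRP defined non-specific binding. IC50 is 50% radioligand displacement.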

T1 sequence (Q16602 23-461): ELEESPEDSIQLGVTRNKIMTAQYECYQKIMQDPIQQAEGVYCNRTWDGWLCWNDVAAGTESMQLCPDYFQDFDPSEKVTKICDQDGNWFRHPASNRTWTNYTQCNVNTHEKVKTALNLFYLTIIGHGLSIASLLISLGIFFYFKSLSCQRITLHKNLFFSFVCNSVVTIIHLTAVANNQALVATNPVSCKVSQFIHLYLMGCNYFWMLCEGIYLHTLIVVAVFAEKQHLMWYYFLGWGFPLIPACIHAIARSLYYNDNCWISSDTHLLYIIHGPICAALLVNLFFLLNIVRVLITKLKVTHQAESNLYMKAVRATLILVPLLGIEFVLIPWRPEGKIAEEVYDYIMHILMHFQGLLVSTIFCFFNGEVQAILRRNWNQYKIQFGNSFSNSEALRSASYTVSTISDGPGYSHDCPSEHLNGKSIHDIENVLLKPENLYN
T1 sequence (O60894 27-148): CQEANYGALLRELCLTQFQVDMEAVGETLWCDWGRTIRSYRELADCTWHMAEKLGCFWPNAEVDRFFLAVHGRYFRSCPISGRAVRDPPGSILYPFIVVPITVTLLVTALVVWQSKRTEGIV

IC50 [1] [nM]	IC50 [2] [nM]	Compound
0.1 to 10	0.1 to 10	CC(C)(C)CN1Cc2c(cc(Cl)c3[nH]ncc23)C[C@@H](CC(=O)N2CCC(c3cc4ccccc4[nH]c3=O)CC2)C1=O [Example 43, (S)-4-Chloro-9-neopentyl-7-(2-oxo-2-(4-(2-oxo-1,2-dihydroquinolin-3-yl)piperidin-1-yl)ethyl)-6,7,9,10-tetrahydroazepino[3,4-e]indazol-8(3H)-one]
10 to 100	10 to 100	CC(C)(C)CN1Cc2c(cc(Cl)c3[nH]ncc23)C[C@@H](CC(=O)N2CCC(c3cc4cnccc4[nH]c3=O)CC2)C1=O [Example 80, 1-[[(7S)-4-chloro-9-(2,2-dimethylpropyl)-3,6,7,8,9,10-hexahydro-8-oxoazepino[3,4-e]indazol-7-yl]acetyl]-4-(1,2-dihydro-2-oxo-1,6-naphthyridin-3-yl)-piperidine]
10 to 100	10 to 100	CC(C)(C)CN1Cc2c(cc(Cl)c3[nH]ncc23)C[C@@H](CC(=O)N2CCC(c3cc4cccc(F)c4[nH]c3=O)CC2)C1=O [Example 47, (S)-4-Chloro-7-(2-(4-(8-fluoro-2-oxo-1,2-dihydroquinolin-3-yl)piperidin-1-yl)-2-oxoethyl)-9-neopentyl-6,7,9,10-tetrahydroazepino[3,4-e]indazol-8(3H)-one]
10 to 100	10 to 100	CC(C)(C)CN1Cc2c(ccc3[nH]ncc23)C[C@@H](CC(=O)N2CCC(c3cc4ccccc4[nH]c3=O)CC2)C1=O [Example 42, (S)-9-Neopentyl-7-(2-oxo-2-(4-(2-oxo-1,2-dihydroquinolin-3-yl)piperidin-1-yl)ethyl)-6,7,9,10-tetrahydroazepino[3,4-e]indazol-8(3H)-one]
0.1 to 10	0.1 to 10	CC(C)(C)CN1Cc2c(cc(Cl)c3[nH]ncc23)C[C@@H](CC(=O)N2CCC(N3Cc4ccccc4CC3=O)CC2)C1=O [Example 41, (S)-4-Chloro-9-neopentyl-7-(2-oxo-2-(4-(3-oxo-3,4-dihydroisoquinolin-2(1H)-yl)piperidin-1-yl)ethyl)-6,7,9,10-tetrahydroazepino[3,4-e]indazol-8(3H)-one]
0.1 to 10	0.1 to 10	CC(C)(C)CN1Cc2c(cc(Cl)c3[nH]ncc23)C[C@@H](CC(=O)N2CCC(n3cc(-c4ccccn4)[nH]c3=O)CC2)C1=O [Example 45, (S)-4-Chloro-9-neopentyl-7-(2-oxo-2-(4-(2-oxo-4-(pyridin-2-yl)-2,3-dihydroimidazol-1-yl)piperidin-1-yl)ethyl)-6,7,9,10-tetrahydroazepino[3,4-e]indazol-8(3H)-one]
0.1 to 10	0.1 to 10	CC(C)(C)CN1Cc2c(cc(Cl)c3[nH]ncc23)C[C@@H](CC(=O)N2CCC(N3Cc4ccccc4NC3=O)CC2)C1=O [Example 21, 4-Chloro-9-(2,2-dimethyl-propyl)-7-(S)-{2-oxo-2-[4-(2-oxo-1,4-dihydro-2H-quinazolin-3-yl)-piperidin-1-yl]-ethyl}-6,7,9,10-tetrahydro-3H-2,3,9-triaza-cyclohepta[e]inden-8-one]

More lines, now with the values behind:

Compound	IC50 [1] [nM]	IC50 [2] [nM]
O=C(NC1Cc2ccc3[nH]ncc3c2CN(Cc2ccncc2)C1=O)N1CCC(N2Cc3ccccc3NC2=O)CC1 (stereo not drawn) [Example 28, 4-(2-Oxo-1,4-dihydro-2H-quinazolin-3-yl)-piperidine-1-carboxylic acid (8-oxo-9-pyridin-4-ylmethyl-3,6,7,8,9,10-hexahydro-2,3,9-triaza-cyclohepta[e]inden-7-yl)-amide]	10 to 100	10 to 100
O=C(C[C@@H]1Cc2cc(Cl)c3[nH]ncc3c2CN(Cc2ncc[nH]2)C1=O)N1CCC(N2Cc3ccccc3NC2=O)CC1 [Example 54, (S)-9-((1H-Imidazol-2-yl)methyl)-4-chloro-7-(2-oxo-2-(4-(2-oxo-1,2-dihydroquinazolin-3(4H)-yl)piperidin-1-yl)ethyl)-6,7,9,10-tetrahydroazepino[3,4-e]indazol-8(3H)-one]	0.1 to 10	0.1 to 10
O=C(C[C@@H]1Cc2cc(Cl)c3[nH]ncc3c2CN(Cc2ccncc2)C1=O)N1CCC(c2cc3ccccc3cn2)CC1 [Example 85, (S)-4-chloro-7-(2-(4-(isoquinolin-3-yl)piperidin-1-yl)-2-oxoethyl)-9-(pyridin-4-ylmethyl)-6,7,9,10-tetrahydroazepino[3,4-e]indazol-8(3H)-one]	10 to 100	10 to 100
O=C(N[C@@H]1Cc2cc3cn[nH]c3cc2CN(Cc2ccccc2)C1=O)N1CCC(N2Cc3ccccc3NC2=O)CC1 [Example 37, (R)-N-(8-Benzyl-7-oxo-1,5,6,7,8,9-hexahydroazepino[4,3-f]indazol-6-yl)-4-(2-oxo-1,2-dihydroquinazolin-3(4H)-yl)piperidine-1-carboxamide]	10 to 100	0.1 to 10
CC(C)(C)CN1Cc2c(cc(Cl)c3[nH]ncc23)C[C@@H](CC(=O)N2CCC3(CC2)NC(=O)Nc2ccccc23)C1=O [Example 46]	0.1 to 10	0.1 to 10
CC(C)(C)CCN1Cc2c(ccc3[nH]ncc23)C[C@@H](NC(=O)N2CCC(N3Cc4ccccc4NC3=O)CC2)C1=O [Example 16, 4-(2-Oxo-1,4-dihydro-2H-quinazolin-3-yl)-piperidine-1-carboxylic acid [9-(3,3-dimethyl-butyl)-8-oxo-3,6,7,8,9,10-hexahydro-2,3,9-triaza-(R)-cyclohepta[e]inden-7-yl]-amide]	0.1 to 10	0.1 to 10
CC(C)CN1Cc2c(ccc3[nH]ncc23)CC(NC(=O)N2CCC(N3Cc4ccccc4NC3=O)CC2)C1=O (stereo not drawn) [Example 24, 4-(2-Oxo-1,4-dihydro-2H-quinazolin-3-yl)-piperidine-1-carboxylic acid (9-isobutyl-8-oxo-3,6,7,8,9,10-hexahydro-2,3,9-triaza-cyclohepta[e]inden-7-yl)-amide]	10 to 100	10 to 100
C[C@H](c1ccccc1)N1Cc2c(ccc3[nH]ncc23)C[C@@H](NC(=O)N2CCC(N3Cc4ccccc4NC3=O)CC2)C1=O [Example 11, 4-(2-Oxo-1,4-dihydro-2H-quinazolin-3-yl)-piperidine-1-carboxylic acid [8-oxo-9-(1-(R)-phenyl-ethyl)-3,6,7,8,9,10-hexahydro-2,3,9-triaza-(R)-cyclohepta[e]inden-7-yl]-amide]	10 to 100	10 to 100
CC(C)(C)CN1Cc2c(ccc3[nH]ncc23)C[C@@H](CC(=O)N2CCC(N3Cc4cccc(F)c4NC3=O)CC2)C1=O [Example 39, (S)-7-(2-(4-(8-Fluoro-2-oxo-1,2-dihydroquinazolin-3(4H)-yl)piperidin-1-yl)-2-oxoethyl)-9-neopentyl-6,7,9,10-tetrahydroazepino[3,4-e]indazol-8(3H)-one]	10 to 100	10 to 100
CC(C)(C)CN1C(=O)C(CC(=O)N2CCC(N3Cc4ccccc4NC3=O)CC2)Cc2cc3[nH]ncc3cc21 (stereo not drawn) [Example 6, 5-Neopentyl-7-(2-oxo-2-(4-(2-oxo-1,2-dihydroquinazolin-3(4H)-yl)piperidin-1-yl)ethyl)-7,8-dihydro-1H-pyrazolo[3,4-g]quinolin-6(5H)-one]	10 to 100	10 to 100
Cc1cc2c(c3cn[nH]c13)CN(C)C(=O)C(NC(=O)N1CCC(N3Cc4ccccc4NC3=O)CC1)C2 (stereo not drawn) [Example 30, 4-(2-Oxo-1,4-dihydro-2H-quinazolin-3-yl)-piperidine-1-carboxylic acid (4,9-dimethyl-8-oxo-3,6,7,8,9,10-hexahydro-2,3,9-triaza-cyclohepta[e]inden-7-yl)-amide]	10 to 100	10 to 100
